Source: patent US20230028918A1, “COMPOSITIONS COMPRISING PKC-BETA INHIBITORS AND PROCESSES FOR THE PREPARATION THEREOF” (priority 2019, published 2023)
In brackets after ≈: the same amount, converted by molar mass. Where two headings read alike, the source gives them in different places.

Key:
[1] = physchem; conditions: pH 7
[2] = tested on: PKCβ signaling; experiment: PKCβ signaling assay: SERBP1 phosphorylation after PMA + ionomycin in whole blood of CLL/SLL patients dosed with Compound A; type: in vivo, human; conditions: for inhibition at 100 mg / inhibition at 200 mg / inhibition at 250 mg: Homo sapiens
Protocol: A phosphor-flow assay was employed to measure the phosphorylation of SERBP1, a novel substrate for PKCP. Whole blood samples were taken at the appropriate time points from CLL patients receiving compound A as part of a phase 1 study, and were shipped overnight and processed for testing the next day. Whole blood was stimulated with PMA+ionomycin, cells were permeabilized, and the amount of SERBP1 phophorylation was measured. The reported data are the CD19+pSERBP1+ population, normalized to each patient's own unstimulated sample at the corresponding time point.
To monitor PKCβ mediated signaling, a biomarker marker assay was developed using Alexa-647 label anti-phospho_SERBP1 antibody.
Briefly, whole blood specimens from each patient was drawn into sodium citrate collection tubes. Samples will be shipped overnight to the flow cytometry lab for processing and testing
Duplicates will be prepared for each treatment condition per donor. The following conditions will be prepared for each donor, unstimulated and PMA and ionomycin stimulated samples. Whole blood 200 μL will be placed in appropriate size cryovial. The samples will be treated as described in Table 1 and incubated at 37° C., 5.0% CO2 for 25-30 minutes.
Following stimulation 2 mL 1×BD FACSLyse will be added, then vortexed and incubated for 12-15 minutes in the dark at ART. Samples will be stored immediately at −80° C. until testing.
Samples from each subject will be processed in batches with all timepoints and include a normal human control unstimulated and stimulated sample. All samples will be processed and collected in singlet.
Frozen samples will be thawed by placing samples in a 37° C. water or bead bath. Sample will be transferred to tubes and centrifuged at 1700 rpm, for 5 minutes at ambient room temperature (ART) with Brake on. Samples will be decanted and washed twice with 1 mL Stain Buffer (FBS). Samples will be resuspended in 200 μL Stain Buffer (FBS) and […] appropriate volume of fluorochrome-conjugated monoclonal surface antibodies will be added (Table 2).
Samples will be hand mixed and incubated for 15-20 minutes in the dark at ART. Samples will be washed twice with 1 mL Stain Buffer (FBS). After wash, 200 μL Fix/Perm buffer will be added to each sample, then vortexed and incubated for 30-35 minutes in the dark at 2-8° C. Samples will be washed twice with 1 ml 1× Permeabilization Buffer (Perm Buffer). 100 μL of 1× Perm Buffer and appropriate volume of pSERBP1 AF647 will be added (documented in the study paperwork) and incubated for 30-35 minutes in the dark at 2-8° C. Samples will be washed twice with 1 mL 1× Perm Buffer. Samples will be resuspended in 125 μL 1× Stain Buffer FBS for acquisition on the flow cytometer.
Flow cytometric data acquisition will be performed using the BD FACSCantoII™ which evaluates two scatter parameters and up to eight color fluorescence channels. Data will be acquired using BD FACSDiva™ software (version 6.1.3 or higher). The samples will be acquired to distinguish the cells of interest from other cell types in the peripheral blood by electronic gating on the basis of CD45 versus side scatter. The instrument will be set to collect 50,000 CD45+ lymphocyte events. Dual combination cytograms and/or histograms will be generated to illustrate the LL (−/−), LR (+/−), UL (−/+), UR (+/+) and/or interval gate for the fraction of the cells. The Flow Cytograms will be printed and maintained with study binder.
The Median Fluorescence Intensity for the AF647 channel will be reported for each population (CD45, CD3, CD19 and CD20). Relative % data will also be reported for CD3+, CD3−CD19+, CD3−CD20+, CD3−CD19+HLADR+CD86+, and CD3−CD20+HLADR+CD86+. Data will be analyzed by Microsoft Excel to obtain descriptive statistics; i.e. Mean, SD, and CV %.
The flow cytometry data are analyzed to determine the amount of SERBP1 phosphorylation following PMA/ionomycin stimulation.

[3] = tested on: Interleukin-8 release; experiment: Interleukin-8 release; type: cell-based
Description: (§1) The methods for these determinations have been described (Grant, et al. 2010, Eur. J. Pharmacol. 627:16-25).

[4] = Compound A plasma concentration and food effect in patients; type: in vivo, human; conditions: for Compound A Plasma Concentration: Day 8 pre-dose trough (Cmin); for concentration at 3 h post-dose on Day 8: human, plasma, Day 8, 3 h post-dose peak
[5] = biological target: Human PKC delta (Homo sapiens, UniProt Q05655); experiment: PKC inhibition, in vitro enzyme assay; type: biochemical
Description: as §1

[6] = tested on: primary CLL cells; experiment: Immunoblot of BCR signaling in primary CLL cells; type: cell-based; conditions: versus vehicle control
[7] = tested on: primary CLL cells with WT and C481S BTK; experiment: CD86 and HLA-DR expression on CpG-stimulated primary CLL cells with WT and C481S BTK (flow cytometry); type: cell-based; conditions: up to 10 μM, CpG stimulation, 48 hrs, baseline and post-relapse samples from ibrutinib treated patients
Protocol: Cryopreserved baseline samples and post-relapse samples from ibrutinib treated patients (n=2) were thawed and treated with up to 10 μM compound A and stimulated with 3.2 M CpG. CD86 (FIG. 3A) and HLA-DR (FIG. 3B) expression was measured by flow cytometry at 48 hrs. Mean fluorescence intensity (MFI) is reported. Error bars represent standard deviation.

[8] = tested on: pSHP2 (PKCβ cell assay); experiment: pSHP2 (PKCβ cell assay); type: cell-based
Description: as §1

[9] = tested on: primary CLL cells; experiment: CCL3 and CCL4 secretion by primary CLL cells (ELISA); type: cell-based; conditions: 5 μM, presence or absence of anti-IgM ligation, 24 hrs
[10] = Clinical tolerability; type: in vivo; conditions: human, plasma, oral; clinical trial, compound taken with food; read-out: Plasma Cmax that is well-tolerated

Human PKC delta, sequence (Q05655 whole entry): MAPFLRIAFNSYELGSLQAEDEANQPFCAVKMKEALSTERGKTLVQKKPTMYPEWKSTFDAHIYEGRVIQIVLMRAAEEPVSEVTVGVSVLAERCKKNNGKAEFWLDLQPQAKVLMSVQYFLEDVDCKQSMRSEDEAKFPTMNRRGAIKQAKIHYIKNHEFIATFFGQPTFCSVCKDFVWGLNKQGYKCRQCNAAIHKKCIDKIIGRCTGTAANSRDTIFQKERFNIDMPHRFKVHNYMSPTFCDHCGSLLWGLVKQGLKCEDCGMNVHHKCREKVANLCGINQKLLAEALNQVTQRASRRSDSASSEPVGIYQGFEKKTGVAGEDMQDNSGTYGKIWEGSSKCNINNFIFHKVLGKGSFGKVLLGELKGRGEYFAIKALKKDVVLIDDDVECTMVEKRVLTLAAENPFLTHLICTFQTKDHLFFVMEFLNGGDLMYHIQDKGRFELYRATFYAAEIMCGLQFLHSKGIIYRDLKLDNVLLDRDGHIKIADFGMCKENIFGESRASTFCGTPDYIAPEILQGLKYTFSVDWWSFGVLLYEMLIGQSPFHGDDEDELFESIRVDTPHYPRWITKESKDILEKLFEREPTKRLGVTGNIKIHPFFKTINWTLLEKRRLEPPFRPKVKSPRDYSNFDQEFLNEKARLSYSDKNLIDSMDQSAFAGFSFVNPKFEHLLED

Cc1ncc(F)c(Nc2n[nH]c3c2CN(C(=O)N2C[C@@H](C)N(CC4CCOCC4)C[C@@H]2C)C3(C)C)n1 [Compound A, 5-{[(2S,5R)-2,5-dimethyl-4-(tetrahydro-2H-pyran-4-ylmethyl)piperazin-1-yl]carbonyl}-N-(5-fluoro-2-methylpyrimidin-4-yl)-6,6-dimethyl-1,4,5,6-tetrahydropyrrolo[3,4-c]pyrazol-3-amine]
solubility at 24 h [1]: 1040 µg/mL (≈ 2080 µM)
Mean Stimulation at Day 8 3 h Post-Dose Peak ([2]; 100 mg BID, N = 1): 96%
Mean Stimulation at Day 8 Pre-Dose Trough (Cmin) ([2]; 100 mg BID, N = 1): 109%
Mean Stimulation at Day 8 3 h Post-Dose Peak ([2]; 200 mg BID, N = 3): 100%
Mean Stimulation at Day 8 Pre-Dose Trough (Cmin) ([2]; 200 mg BID, N = 3): 121%
Mean Stimulation at Day 8 3 h Post-Dose Peak ([2]; 250 mg BID, N = 3): 102%
Mean Stimulation at Day 8 Pre-Dose Trough (Cmin) ([2]; 250 mg BID, N = 3): 104%
Phosphorylation of SERBP1 (CD19+pSERBP1+ population) ([2]; CLL patients in phase 1 study, PMA + ionomycin stimulated whole blood): inhibits phosphorylation of SERBP1 in vivo
inhibition at 100 mg ([2]; 192 h, 100 mg BID, Day 8 pre-dose, read-out: % Inhibition of Stimulation at Trough (Cmin)): 51%
inhibition at 200 mg ([2]; 192 h, 200 mg BID, Day 8 pre-dose, read-out: % Inhibition of Stimulation at Trough (Cmin)): 70%
inhibition at 250 mg ([2]; 192 h, 250 mg BID, Day 8 pre-dose, read-out: % Inhibition of Stimulation at Trough (Cmin)): 97%
inhibition at 100 mg ([2]; 100 mg BID, Day 8, 3 h post-dose, read-out: % Inhibition of Stimulation at Peak): 122%
inhibition at 200 mg ([2]; 200 mg BID, Day 8, 3 h post-dose, read-out: % Inhibition of Stimulation at Peak): 102%
inhibition at 250 mg ([2]; 250 mg BID, Day 8, 3 h post-dose, read-out: % Inhibition of Stimulation at Peak): 98%
Plasma concentration that completely suppresses PKCβ signaling ([2]; whole blood samples from patients with CLL or SLL): 500 to 600 ng/mL
IC50 [3]: 39 nM
Compound A Plasma Concentration ([4]; 100 mg BID): 186 ng/mL
Compound A Plasma Concentration ([4]; 200 mg BID): 295 ng/mL
Compound A Plasma Concentration ([4]; 250 mg BID): 542 ng/mL
Effect of food on the PK profile ([4]; clinical trial data): does not have a significant effect
concentration at 3 h post-dose on Day 8 ([4]; 100 mg BID): 587 ng/mL
concentration at 3 h post-dose on Day 8 ([4]; 200 mg BID): 837 ng/mL
concentration at 3 h post-dose on Day 8 ([4]; 250 mg BID): 1310 ng/mL
Effect of food on the pharmacokinetics ([4]; single dose of the IR formulations): no significant effect
Inhibition of PKC delta [5]: does not significantly inhibit
Phosphorylation of PKCβ and downstream targets (pPKCβ, pERK, pIκBα, pGSK3β) [6]: decreased phosphorylation
CD86 and HLA-DR expression (MFI) [7]: reduces activation
IC50 [8]: 9.8 nM
CCL3 and CCL4 secretion [9]: inhibition of pro-inflammatory cytokine expression
Cmax [10]: ~2000 ng/mL
